Test results reported in PubChem BioAssay (NCI).
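Results reflect a 48-hour exposure of cells in 96-well plates to compound at five concentrations. The concentration for full growth arrest is given as TGI.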

Assays:
Test in all cases: growth of human tumour cells (NCI), 48 h
COLO 205 colon = system: COLO 205 colon
DU-145 prostate = system: DU-145 prostate
HOP-62 NSCLC = system: HOP-62 NSCLC
HOP-92 NSCLC = system: HOP-92 NSCLC
KM12 colon = system: KM12 colon
MDA-MB-231 breast = system: MDA-MB-231 breast
MDA-MB-435 = system: MDA-MB-435
MDA-N = system: MDA-N
NCI-H226 lung = system: NCI-H226 lung
OVCAR-8 ovarian = system: OVCAR-8 ovarian
PC-3 prostate = system: PC-3 prostate
SK-MEL-2 melanoma = system: SK-MEL-2 melanoma
SNB-19 CNS = system: SNB-19 CNS
SR leukemia = system: SR leukemia
U251 CNS = system: U251 CNS
UO-31 renal = system: UO-31 renal
HCC-2998 colon = system: HCC-2998 colon
RXF 393 renal = system: RXF 393 renal
UACC-257 melanoma = system: UACC-257 melanoma
T-47D breast = system: T-47D breast

SMILES | TGI (COLO 205 colon) [µM] | TGI (DU-145 prostate) [µM] | TGI (HOP-62 NSCLC) [µM] | TGI (HOP-92 NSCLC) [µM] | TGI (KM12 colon) [µM] | TGI (MDA-MB-231 breast) [µM] | TGI (MDA-MB-435) [µM] | TGI (MDA-N) [µM] | TGI (NCI-H226 lung) [µM] | TGI (OVCAR-8 ovarian) [µM] | TGI (PC-3 prostate) [µM] | TGI (SK-MEL-2 melanoma) [µM] | TGI (SNB-19 CNS) [µM] | TGI (SR leukemia) [µM] | TGI (U251 CNS) [µM] | TGI (UO-31 renal) [µM] | TGI (HCC-2998 colon) [µM] | TGI (RXF 393 renal) [µM] | TGI (UACC-257 melanoma) [µM] | TGI (T-47D breast) [µM]
O=C1/C(=C/c2cccs2)NC(=S)N1CN1CCCCC1 | 47.3 | > 100 | > 100 | > 100 | > 100 | > 100 | > 100 | > 100 | > 100 | > 100 | > 100 | > 100 | > 100 | > 100 | > 100 | > 100 |  |  |  | 
S=C(N/N=C/c1ccccn1)N1CCCCCC1 |  | > 100 |  | > 100 | 63.3 |  | 96.8 | > 48.9 | 1.94 | 12.7 | > 100 | 24.8 | > 100 | 0.93 |  | 4.76 | > 38.1 | 5.01 | 0.169 | 
CN(CCNC(=S)c1cn(C)c2c1ccc1ccccc12)CCNC(=S)c1cn(C)c2c1ccc1ccccc12 | > 100 | > 100 | > 100 | > 100 | > 100 | > 100 | > 100 |  |  | > 100 | > 100 | > 100 | > 100 | > 100 | > 100 | > 100 | > 100 | 7.47 | > 100 | 28.6
O=C(O)C12CC3CC(CC(F)(C3)C1)C2 | > 100 |  | > 100 | > 100 | > 100 |  |  |  |  | > 100 |  | > 100 |  |  | > 100 | > 100 | > 100 | > 100 | > 100 | 
CCc1ccccc1NC(=O)CC1NC(=O)CS1 (stereo not given) | > 100 |  | > 100 | > 100 | > 100 |  |  |  | > 100 | > 100 |  | > 100 | > 100 |  | > 100 | > 100 | > 100 | > 100 | > 100 | 
CN(C)CC(/C(Cc1ccccc1)=N\NC(=S)NN)c1ccccc1 (stereo not given) | > 100 |  | > 100 | > 100 | > 100 |  |  |  | > 100 | > 100 |  |  | > 100 | > 100 | > 100 | > 100 | > 100 | > 100 | > 100 | 
N#CNC1=NC(N)C(c2nc3ccccc3[nH]2)=C(CCCC(=O)Nc2cccc([N+](=O)[O-])c2)N1 (stereo not given) | > 100 |  | > 100 |  | > 100 |  |  |  | > 100 | > 100 |  | > 100 | > 100 |  |  | > 100 | > 100 | > 100 | > 100 | 
O=C1CSC(c2ccccc2O)N1c1ccc(Oc2ccc(Cl)cc2)c(Cl)c1 (stereo not given) | 35 | 59.8 | 42.3 | 39.1 | 35.7 | 34.3 | 69 |  | > 100 | 74.6 | 60 | 65.7 | 65 | 40.2 | 39.5 | 20.7 | 40.4 |  | 81.4 | 46.8
COc1cc(-c2cc(=O)c3ccccc3[nH]2)cc(OC)c1OC | > 75 |  | > 75 |  | > 75 |  |  |  |  | > 75 |  |  | > 75 | > 75 | > 75 | > 75 | > 75 | > 75 | > 75 | 
CS(=O)(=O)C1(Br)S(=O)(=O)OCCOS1(=O)=O | > 100 |  | > 100 | > 100 |  |  |  |  | > 100 | > 100 |  | > 100 | > 100 | > 100 | > 100 | > 100 | > 100 | > 100 | > 100 | 
O=C(N/N=C(\C1=Nc2ccc(Cl)cc2NC1O)C(O)/C=C/c1ccccc1)c1ccncc1 (stereo not given) | > 100 |  | > 100 | > 100 | > 100 |  |  |  | > 100 | > 100 |  |  | > 100 | > 100 | > 100 | > 100 | > 100 | > 100 | > 100 | 
c1ccc(C2=C(c3ccccc3)Sc3nnc(CCCCCCCCc4nnc5n4NC(c4ccccc4)=C(c4ccccc4)S5)n3N2)cc1 | > 100 | > 100 | > 100 | > 100 | > 100 | > 100 | > 100 |  | > 100 | > 100 | > 100 | > 100 | > 100 | > 100 | > 100 | > 100 | > 100 | > 100 | > 100 | 79.2
Cc1ccc(C2=Nc3ccccc3SC(c3cccc4c3OCO4)C2)cc1 (stereo not given) | 35.6 |  | > 100 |  | 32.5 |  |  |  | 37 | 65.3 |  | 44 | 30.7 |  |  | 27.3 | 41.3 |  | 38.4 | 
COC(=O)c1ccc(C=C(C#N)C#N)cc1 | 74.6 |  | 74.8 | 39.6 | 92.2 |  |  |  | 80.4 | 56.5 |  | 38.1 | > 100 |  | 61.5 |  | 32.9 |  |  | 
Oc1cccnc1/C=N/OCc1ccccc1 | > 100 |  | > 100 |  | > 100 |  |  |  | > 100 | > 100 |  | > 100 | > 100 |  | > 100 | > 100 | > 100 | 72.8 | > 100 | 
C=C1C=CC2(Br)OC3CC(C)(Cl)C(Br)CC13C2(C)C (stereo not given) | 30.9 |  | 48 | 50.8 | 58.9 |  |  |  | 34.1 | 77.1 |  | 31.9 | 88.3 |  | 35.3 | 70.5 | 42.7 |  | 42.8 | 
